Patent US8129366B2, “VLA-4 inhibitory drug” (Daiichi Sankyo Company, Limited, priority 2005, dated 2012)
Like-named read-outs stand apart in the source and are kept apart here.

What was measured:
hα4 and β1 integrins = target: T1, hα4 and β1 integrins (Homo sapiens, UniProt P05556+P13612); assay: In vitro inhibition of binding between CHO cells expressing hα4 and β1 integrins and Eu3+-hVCAM-1 D1D7-IgG; conditions: for Ki: CHO cells expressing hα4 and β1 integrins, Eu3+-hVCAM-1 D1D7-IgG ligand, without HSA; for IC50: in the presence of 3% human serum albumin (HSA final concentration 3%)
T1 construct: expressed in transfected cells; host or cells: CHO cells
Procedure, shortened: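 Transfected CHO cells, cultured 2 days, were incubated with compound and Eu³⁺-hVCAM-1 D1D7-IgG (diluted to 2 nM) for 1 h at room temperature. Buffer was 25 mM HEPES pH 7.5 with 1 mM Ca²⁺, 1 mM Mg²⁺, 4 mM Mn²⁺ and 0.1% BSA, ±3% HSA final. Cells were washed at 4 °C and read by DELFIA time-resolved fluorescence; Ki was derived from IC50 using the Scatchard Kd.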

[1] = for Solubility, First liquid of Japanese Pharmacopoeia: pH 1.2; for Solubility, Second liquid of Japanese Pharmacopoeia: pH 6.8
Procedure: (§1) The solubilities of the substance under test in the first liquid (JP1, pH=1.2) of the Japanese Pharmacopoeia and the second liquid (JP2, pH=6.8) of the Japanese Pharmacopoeia, were evaluated.

[2] = Test for pharmacokinetics and oral absorbability in monkeys; format: in vivo; conditions: orally 0.5 mg/kg, single agent; for AUC (ng · h/ml): total area under the plasma concentration versus time curve: LC/MS/MS
Procedure: The pharmacokinetic parameters in the case of orally administering (0.5 mg/kg, single agent) the substance under test to monkeys, were as follows.

[3] = Solubility test in first and second liquid of the Japanese Pharmacopoeia
Procedure: as §1

[4] = tested on: eosinophile infiltration in mice actively sensitized with ascaris; assay: Test for eosinophile infiltration in mice actively sensitized with ascaris, administered two times a day; format: in vivo; conditions: orally 5 mg/kg two times a day
Procedure: Test for eosinophile infiltration in mice actively sensitized with ascaris (antigen to pig roundworm):
It has been reported that infiltration of eosinophilic cells is induced by active sensitization with ascaris {Int. Arch. Immuno., 108, 11-18 (1995)}. An evaluation of the compounds under test was performed according to the evaluation method described herein. The substance under test was orally administered in an amount of 5 mg/kg, two times a day. The total cell count and the eosinophile count in BALF of 48 hours after sensitization were calculated, and the effects were determined by comparing with the group not administered with the substance under test.

T1 sequence (P13612 34-1032): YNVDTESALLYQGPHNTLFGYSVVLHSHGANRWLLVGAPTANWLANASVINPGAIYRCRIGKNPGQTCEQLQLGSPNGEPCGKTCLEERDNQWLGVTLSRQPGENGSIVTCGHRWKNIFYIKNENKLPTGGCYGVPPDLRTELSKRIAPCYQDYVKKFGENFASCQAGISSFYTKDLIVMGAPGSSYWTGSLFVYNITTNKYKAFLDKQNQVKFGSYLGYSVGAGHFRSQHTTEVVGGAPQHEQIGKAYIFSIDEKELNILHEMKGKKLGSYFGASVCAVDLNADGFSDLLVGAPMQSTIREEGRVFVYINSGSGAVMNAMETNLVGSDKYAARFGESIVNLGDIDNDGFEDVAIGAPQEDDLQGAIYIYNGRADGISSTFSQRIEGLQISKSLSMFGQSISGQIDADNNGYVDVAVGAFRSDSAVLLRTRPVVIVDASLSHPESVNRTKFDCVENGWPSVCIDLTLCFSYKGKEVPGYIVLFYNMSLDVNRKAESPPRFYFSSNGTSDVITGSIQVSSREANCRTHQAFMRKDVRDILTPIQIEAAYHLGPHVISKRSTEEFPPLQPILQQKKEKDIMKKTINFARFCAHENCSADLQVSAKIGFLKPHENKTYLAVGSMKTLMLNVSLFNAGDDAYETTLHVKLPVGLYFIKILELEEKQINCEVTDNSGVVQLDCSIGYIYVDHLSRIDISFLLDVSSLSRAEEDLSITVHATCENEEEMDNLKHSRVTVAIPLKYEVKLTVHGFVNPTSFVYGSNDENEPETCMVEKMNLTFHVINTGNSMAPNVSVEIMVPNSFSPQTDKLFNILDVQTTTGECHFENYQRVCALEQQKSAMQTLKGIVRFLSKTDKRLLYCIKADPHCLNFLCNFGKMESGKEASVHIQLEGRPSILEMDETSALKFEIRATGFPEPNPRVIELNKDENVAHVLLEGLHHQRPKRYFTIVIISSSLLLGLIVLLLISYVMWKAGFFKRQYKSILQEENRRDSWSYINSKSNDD
T1 sequence (P05556 21-798): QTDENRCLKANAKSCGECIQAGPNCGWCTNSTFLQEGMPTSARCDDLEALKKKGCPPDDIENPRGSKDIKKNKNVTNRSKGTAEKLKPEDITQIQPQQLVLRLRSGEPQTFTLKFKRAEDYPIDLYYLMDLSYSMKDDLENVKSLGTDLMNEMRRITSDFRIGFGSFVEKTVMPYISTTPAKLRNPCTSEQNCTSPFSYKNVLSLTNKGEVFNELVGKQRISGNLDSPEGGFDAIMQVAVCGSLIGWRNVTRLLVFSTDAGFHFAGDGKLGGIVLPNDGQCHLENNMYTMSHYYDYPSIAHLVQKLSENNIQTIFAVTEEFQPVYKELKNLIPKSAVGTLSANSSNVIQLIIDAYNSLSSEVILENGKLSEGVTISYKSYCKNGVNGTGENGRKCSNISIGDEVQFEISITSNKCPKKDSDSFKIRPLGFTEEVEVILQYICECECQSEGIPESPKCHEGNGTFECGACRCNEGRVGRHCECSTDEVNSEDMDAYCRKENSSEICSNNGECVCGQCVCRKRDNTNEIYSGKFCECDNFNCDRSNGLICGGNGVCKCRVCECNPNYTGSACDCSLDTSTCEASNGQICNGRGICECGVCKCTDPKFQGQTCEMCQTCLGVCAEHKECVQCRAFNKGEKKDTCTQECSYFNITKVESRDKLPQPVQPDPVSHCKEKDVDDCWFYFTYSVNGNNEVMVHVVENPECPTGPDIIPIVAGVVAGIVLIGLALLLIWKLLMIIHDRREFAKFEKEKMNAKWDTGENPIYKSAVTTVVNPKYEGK

Structure (SMILES) | Ki (hα4 and β1 integrins) [nM] | IC50 (hα4 and β1 integrins) [nM] | Solubility, First liquid of Japanese Pharmacopoeia [1] [µg/mL] | Solubility, Second liquid of Japanese Pharmacopoeia [1] [µg/mL] | Cltot (mL/min/kg): apparent plasma clearance [2] [mL/min/kg] | AUC (ng · h/ml): total area under the plasma concentration versus time curve [2] [ng·h/mL] | Solubility, First liquid of Japanese Pharmacopoeia ([3]; JP1, pH=1.2) [µg/mL] | Solubility, Second liquid of Japanese Pharmacopoeia ([3]; JP2, pH=6.8) [µg/mL] | inhibition in vivo at 5 mg/kg ([4]; Mus musculus, po, eosinophile count in BALF 48 hours after sensitization vs ascaris-sensitized group, read-out: suppression rate (%)) [%] | Average total eosinophile count (×10^5) of (ascaris-sensitized + substance under test) group ([4]; BALF 48 hours after sensitization) | solubility ([3]; first liquid of the Japanese Pharmacopoeia (JP1), pH 1.2, simulated gastric fluid, First liquid of Japanese Pharmacopoeia (μg/mL), JP1, pH=1.2) [µg/mL] | solubility ([3]; second liquid of the Japanese Pharmacopoeia (JP2), pH 6.8, aqueous buffer, Second liquid of Japanese Pharmacopoeia (μg/mL), JP2, pH=6.8) [µg/mL]
COC1CN([C@H]2C[C@@H](CO[C@H]3CC[C@H](C(=O)O)CC3)N(C(=O)Cc3cc(Cl)c(NC(=O)c4coc5ccccc45)cc3F)C2)C1 (relative stereo) [Example 5, Trans-4-[1-[[4-[(benzo[b]furan-3-ylcarbonyl)amino]-5-chloro-2-fluorophenyl]acetyl]-(4S)-(3-methoxyazetidin-1-yl)-(2S)-pyrrolidinylmethoxy]cyclohexanecarboxylic acid] | 1.4 | 12 | 1970 | >2000 |  |  |  |  |  |  |  | 
CO[C@H]1CN([C@H]2C[C@@H](CO[C@H]3CC[C@H](C(=O)O)CC3)N(C(=O)Cc3ccc(NC(=O)c4coc5ccccc45)c(Cl)c3)C2)C[C@H]1OC (relative stereo) [Example 61, Trans-4-[1-[[4-[(benzo[b]furan-3-ylcarbonyl)amino]-3-chlorophenyl]acetyl]-(4S)-(cis-3,4-dimethoxypyrrolidin-1-yl)-(2S)-pyrrolidinylmethoxy]cyclohexanecarboxylic acid] | 1.6 | 5.5 | 1100 | 1300 |  |  |  |  |  |  |  | 
COC1CN([C@H]2C[C@@H](CO[C@H]3CC[C@H](C(=O)O)CC3)N(C(=O)Cc3cc(Cl)c(NC(=O)c4csc5ccccc45)cc3F)C2)C1 (relative stereo) [Example 3, Trans-4-[1-[[4-[(benzo[b]thiophen-3-ylcarbonyl)amino]-5-chloro-2-fluorophenyl]acetyl]-(4S)-(3-methoxyazetidin-1-yl)-(2S)-pyrrolidinylmethoxy]cyclohexanecarboxylic acid] | 0.97 | 11 |  |  | 0.26 | 32510 | 1848 | 1989 |  |  |  | 
CC1CN([C@H]2C[C@@H](CO[C@H]3CC[C@H](C(=O)O)CC3)N(C(=O)Cc3cc(Cl)c(NC(=O)c4cn(C)c5ccccc45)cc3Cl)C2)C1 [Example 10, Trans-4-[1-[[2,5-dichloro-4-[(1-methyl-1H-indol-3-ylcarbonyl)amino]phenyl]acetyl]-(4S)-(3-methylazetidin-1-yl)-(2S)-pyrrolidinylmethoxy]cyclohexanecarboxylic acid] | 9.5 | 37 |  |  | 0.80 | 10799 |  |  | 44 | 1.73 ×10^5 | > 2000 | > 2000
COC1CN([C@H]2C[C@@H](CO[C@H]3CC[C@H](C(=O)O)CC3)N(C(=O)Cc3cc(Cl)c(NC(=O)c4csc5ccccc45)cc3Cl)C2)C1 (relative stereo) [Example 4, Trans-4-[1-[[4-[(benzo[b]thiophen-3-ylcarbonyl)amino]-2,5-dichlorophenyl]acetyl]-(4S)-(3-methoxyazetidin-1-yl)-(2S)-pyrrolidinylmethoxy]cyclohexanecarboxylic acid] | 0.8 | 19 | >2000 | >2000 |  |  |  |  |  |  |  | 
